Laboratory results as given in patent publication US20250346602A1, “LACTAM SUBSTITUTED IMIDAZOPYRIDAZINE IL-17A MODULATORS AND USES THEREOF” (DICE ALPHA, INC., priority 2022, published 2025).

Target: T1, IL-17A/A (Homo sapiens, UniProt Q16552)
T1 construct: purchased Genscript Z03228
T1 sequence (Q16552 24-155): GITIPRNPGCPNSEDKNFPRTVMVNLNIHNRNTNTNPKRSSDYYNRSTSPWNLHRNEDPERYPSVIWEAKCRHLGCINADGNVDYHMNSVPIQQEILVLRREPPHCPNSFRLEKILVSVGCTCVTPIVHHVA
Test: IL-17A/A HEK-Blue cell assay
Format: cell-based
Settings: HEK-Blue IL-17A reporter cell line (HEK 293), IL-17A/A stimulation, 20 hours incubation, SEAP read at A630
Procedure: The HEK-Blue IL-17A reporter cell line (Fisher #NC1408637) was used for cell-based IL-17A/A inhibition assays. Cells were grown and prepared for assays according to the manufacturer's instructions. This cell line consists of HEK 293 cells that were designed to expressed IL-17RA, IL-17RC, and the ActI adapter molecule, the combination of which, when stimulated by IL-17A/A activates a NFκB promoter and drives expression of a recombinant Secreted Alkaline Phosphatase (SEAP) gene protein. Media from the cells is then added to a development reagent (Quanti-Blue Substrate, Fisher #NC9711613), and read at A630.
Compounds were titrated in DMSO, with a top final compound concentration of 10 uM, 1 uM, or 0.3 uM, and added to the cells immediately before adding IL-17A/A (Genscript #Z03228). The cells, compound, and IL-17A/A were then incubated for 20 hours before media was removed for SEAP analysis. The resulting inhibition curve was then analyzed using Graphpad Prism 7.0, and IC50 values were determined using a 4-parameter nonlinear fit. DMSO was added to a universal final concentration of 0.1% to optimize background.

SMILES | IC50 [nM]
CCn1nccc1C(=O)N[C@H](c1cn2nc(CC3C[C@@H](C(F)(F)F)CNC3=O)c(COC)cc2n1)C1CCC(F)(F)CC1 (stereo partly drawn) [Compound 84, N-((1S)-(4,4-difluorocyclohexyl)(7-(methoxymethyl)-6-(((5R)-2-oxo-5-(trifluoromethyl)piperidin-3-yl)methyl)imidazo[1,2-b]pyridazin-2-yl)methyl)-1-ethyl-1H-pyrazole-5-carboxamide] | 100 to 1000
O=C(N[C@H](c1cn2nc(CC3C[C@@H](C(F)(F)F)CNC3=O)ccc2n1)C1CCC(F)(F)CC1)c1conc1C1(C(F)(F)F)CC1 (stereo partly drawn) [Compound 138, N-((1S)-(4,4-difluorocyclohexyl)(6-(((5R)-2-oxo-5-(trifluoromethyl)piperidin-3-yl)methyl)imidazo[1,2-b]pyridazin-2-yl)methyl)-3-(1-(trifluoromethyl)cyclopropyl)isoxazole-4-carboxamide] | 100 to 1000
CCn1nccc1C(=O)N[C@H](c1cn2nc(CC3CC(F)(F)CNC3=O)c(NC)cc2n1)C1CCC(F)(F)CC1 (single isomer, unassigned) [Compound 73] | 100 to 1000
CC[C@@H](c1ccc(F)cc1)C(NC(=O)c1ccnn1CC)c1cn2nc(CC3CC(F)(F)CNC3=O)ccc2n1 (single isomer, unassigned) [Compound 30] | 100 to 1000
O=C(N[C@H](c1cn2nc(CC3C[C@@H](C(F)(F)F)CNC3=O)ccc2n1)C1CCC(F)(F)CC1)c1conc1CC(F)F (stereo partly drawn) [Compound 120, N-((1S)-(4,4-difluorocyclohexyl)(6-(((5R)-2-oxo-5-(trifluoromethyl)piperidin-3-yl)methyl)imidazo[1,2-b]pyridazin-2-yl)methyl)-3-(2,2-difluoroethyl)isoxazole-4-carboxamide] | 100 to 1000
O=C(N[C@H](c1cn2nc(CC3C[C@H](C(F)(F)F)CNC3=O)ccc2n1)[C@H]1CCCC(F)(F)C1)c1nonc1C1CC1 (stereo partly drawn) [Compound 155, 4-cyclopropyl-N—((S)-((S)-3,3-difluorocyclohexyl)(6-(((5S)-2-oxo-5-(trifluoromethyl)piperidin-3-yl)methyl)imidazo[1,2-b]pyridazin-2-yl)methyl)-1,2,5-oxadiazole-3-carboxamide] | < 100
N#Cc1cc(C(=O)N[C@H](c2cn3nc(CC4C[C@@H](C(F)(F)F)CNC4=O)ccc3n2)C2CCC(F)(F)CC2)cs1 (stereo partly drawn) [Compound 134, 5-cyano-N-((1S)-(4,4-difluorocyclohexyl)(6-(((5R)-2-oxo-5-(trifluoromethyl)piperidin-3-yl)methyl)imidazo[1,2-b]pyridazin-2-yl)methyl)thiophene-3-carboxamide] | 100 to 1000
CC[C@@H](c1ccc(F)cc1)[C@H](NC(=O)c1ccnn1CC)c1cn2ncc(CC3C[C@@H](C(F)(F)F)NC3=O)cc2n1 (single isomer, unassigned) [Compound 218] | < 100
CCn1nccc1C(=O)N[C@H](c1cn2nc(CC3C[C@@H](C(F)(F)F)CNC3=O)c(N(C)C)cc2n1)C1CCC(F)(F)CC1 (single isomer, unassigned) [Compound 85] | 100 to 1000
Cc1nonc1C(=O)N[C@H](c1cn2nc(C[C@H]3C[C@@H](C(F)(F)F)NC3=O)ccc2n1)C1CCC(F)(F)CC1 [Compound 18, N—((S)-(4,4-difluorocyclohexyl)(6-(((3R,5S)-2-oxo-5-(trifluoromethyl)pyrrolidin-3-yl)methyl)imidazo[1,2-b]pyridazin-2-yl)methyl)-4-methyl-1,2,5-oxadiazole-3-carboxamide] | > 1000
CCn1nccc1C(=O)N[C@H](c1cn2nc(CC3C[C@@H](C(F)(F)F)CNC3=O)c(N(C)C3CC3)cc2n1)C1CCC(F)(F)CC1 (single isomer, unassigned) [Compound 90] | 100 to 1000
CCn1nccc1C(=O)NC(c1cn2nc(CC3C(=O)NCC4CC43)ccc2n1)C1CCC(C)CC1 (single isomer, unassigned) [Compound 48] | 100 to 1000
O=C(N[C@H](c1cn2nc(CC3C[C@@H](C(F)(F)F)CNC3=O)ccc2n1)C1CCC(F)(F)CC1)c1ccnn1CC(F)(F)F (stereo partly drawn) [Compound 105, N-((1S)-(4,4-difluorocyclohexyl)(6-(((5R)-2-oxo-5-(trifluoromethyl)piperidin-3-yl)methyl)imidazo[1,2-b]pyridazin-2-yl)methyl)-1-(2,2,2-trifluoroethyl)-1H-pyrazole-5-carboxamide] | 100 to 1000
CCn1nccc1C(=O)N[C@H](c1cn2nc(CC3C[C@@H](C(F)(F)F)CNC3=O)c(C(=O)O)cc2n1)C1CCC(F)(F)CC1 (stereo partly drawn) [Compound 187, 2-((S)-(4,4-difluorocyclohexyl)(1-ethyl-1H-pyrazole-5-carboxamido)methyl)-6-(((5R)-2-oxo-5-(trifluoromethyl)piperidin-3-yl)methyl)imidazo[1,2-b]pyridazine-7-carboxylic acid] | 100 to 1000
O=C(N[C@H](c1cn2nc(CC3C[C@@H](C(F)(F)F)CNC3=O)ccc2n1)C1CCC(F)(F)CC1)c1conc1C1(F)CC1 (stereo partly drawn) [Compound 122, N-((1S)-(4,4-difluorocyclohexyl)(6-(((5R)-2-oxo-5-(trifluoromethyl)piperidin-3-yl)methyl)imidazo[1,2-b]pyridazin-2-yl)methyl)-3-(1-fluorocyclopropyl)isoxazole-4-carboxamide] | 100 to 1000
CCn1nccc1C(=O)N[C@H](c1cn2nc(CC3C[C@@H](C(F)(F)F)CNC3=O)c(S(C)(=O)=O)cc2n1)C1CCC(F)(F)CC1 (stereo partly drawn) [Compound 184, N-((1S)-(4,4-difluorocyclohexyl)(7-(methylsulfonyl)-6-(((5R)-2-oxo-5-(trifluoromethyl)piperidin-3-yl)methyl)imidazo[1,2-b]pyridazin-2-yl)methyl)-1-ethyl-1H-pyrazole-5-carboxamide] | 100 to 1000
O=C1NC[C@H](C(F)(F)F)CC1Cc1ccc2nc([C@@H](NC(=O)C3(F)CC3)C3CCC(F)(F)CC3)cn2n1 (stereo partly drawn) [Compound 139, N-((1S)-(4,4-difluorocyclohexyl)(6-(((5R)-2-oxo-5-(trifluoromethyl)piperidin-3-yl)methyl)imidazo[1,2-b]pyridazin-2-yl)methyl)-1-fluorocyclopropane-1-carboxamide] | > 1000
Cc1nonc1C(=O)N[C@H](c1cn2nc(CC3CCCNC3=O)ccc2n1)C1CCCCCC1 (stereo partly drawn) [Compound 2, N-((1S)-cycloheptyl(6-((2-oxopiperidin-3-yl)methyl)imidazo[1,2-b]pyridazin-2-yl)methyl)-4-methyl-1,2,5-oxadiazole-3-carboxamide] | > 1000
Cc1nonc1C(=O)N[C@H](c1cn2nc(C[C@H]3C[C@@H](C(F)(F)F)NC3=O)ccc2n1)C(C1CC1)C1CC1 [Compound 21, N—((S)-2,2-dicyclopropyl-1-(6-(((3R,5S)-2-oxo-5-(trifluoromethyl)pyrrolidin-3-yl)methyl)imidazo[1,2-b]pyridazin-2-yl)ethyl)-4-methyl-1,2,5-oxadiazole-3-carboxamide] | > 1000
CCCn1nccc1C(=O)N[C@H](c1cn2nc(CC3C[C@@H](C(F)(F)F)CNC3=O)ccc2n1)C1CCC(F)(F)CC1 (stereo partly drawn) [Compound 128, N-((1S)-(4,4-difluorocyclohexyl)(6-(((5R)-2-oxo-5-(trifluoromethyl)piperidin-3-yl)methyl)imidazo[1,2-b]pyridazin-2-yl)methyl)-1-propyl-1H-pyrazole-5-carboxamide] | 100 to 1000
CCn1nccc1C(=O)N[C@H](c1cn2nc(CC3C[C@@H](C(F)(F)F)CNC3=O)ccc2n1)C1CCCCC1 (stereo partly drawn) [Compound 191, N-((1S)-cyclohexyl(6-(((5R)-2-oxo-5-(trifluoromethyl)piperidin-3-yl)methyl)imidazo[1,2-b]pyridazin-2-yl)methyl)-1-ethyl-1H-pyrazole-5-carboxamide] | 100 to 1000
Cc1nonc1C(=O)N[C@H](c1cn2nc(CC3C[C@@H](C(F)(F)F)CNC3=O)ccc2n1)[C@H]1CC[C@H](C)CC1 (stereo partly drawn) [Compound 165, 4-Methyl-N-((1S)-((1R.4S)-4-methylcyclohexyl)(6-(((5R)-2-oxo-5-(trifluoromethyl)piperidin-3-yl)methyl)imidazo[1,2-b]pyridazin-2-yl)methyl)-1,2,5-oxadiazole-3-carboxamide] | 100 to 1000
O=C1NC[C@H](C(F)(F)F)CC1Cc1ccc2nc([C@@H](NC(=O)C3CC34CC(F)(F)C4)C3CCC(F)(F)CC3)cn2n1 (single isomer, unassigned) [Compound 130] | > 1000
CC(C)n1nccc1C(=O)N[C@H](c1cn2nc(CC3C[C@@H](C(F)(F)F)CNC3=O)ccc2n1)C1CCC(F)(F)CC1 (stereo partly drawn) [Compound 111, N-((1S)-(4,4-difluorocyclohexyl)(6-(((5R)-2-oxo-5-(trifluoromethyl)piperidin-3-yl)methyl)imidazo[1,2-b]pyridazin-2-yl)methyl)-1-isopropyl-1H-pyrazole-5-carboxamide] | < 100
CCn1nccc1C(=O)N[C@H](c1cn2nc(CC3C[C@@H](C(F)(F)F)CNC3=O)c(N(C)CC(F)(F)F)cc2n1)C1CCC(F)(F)CC1 (single isomer, unassigned) [Compound 182] | 100 to 1000
CCn1nccc1C(=O)NC(c1cn2nc(CC3CC(F)(F)CNC3=O)ccc2n1)C1CCC(C)CC1 (single isomer, unassigned) [Compound 27] | 100 to 1000
